Measurements as given in paper PMC3274540 (PLoS ONE, 2012).

Assays:
ERβ = target: T1, ERβ (Homo sapiens, UniProt Q92731); assay: fluorescence polarization competition binding assay
T1 construct: gene ESR2; recombinant

ERα = target: T2, ERα (Homo sapiens, UniProt P03372); assay: as above
T2 construct: gene ESR1; recombinant
T2 sequence (P03372 1-595): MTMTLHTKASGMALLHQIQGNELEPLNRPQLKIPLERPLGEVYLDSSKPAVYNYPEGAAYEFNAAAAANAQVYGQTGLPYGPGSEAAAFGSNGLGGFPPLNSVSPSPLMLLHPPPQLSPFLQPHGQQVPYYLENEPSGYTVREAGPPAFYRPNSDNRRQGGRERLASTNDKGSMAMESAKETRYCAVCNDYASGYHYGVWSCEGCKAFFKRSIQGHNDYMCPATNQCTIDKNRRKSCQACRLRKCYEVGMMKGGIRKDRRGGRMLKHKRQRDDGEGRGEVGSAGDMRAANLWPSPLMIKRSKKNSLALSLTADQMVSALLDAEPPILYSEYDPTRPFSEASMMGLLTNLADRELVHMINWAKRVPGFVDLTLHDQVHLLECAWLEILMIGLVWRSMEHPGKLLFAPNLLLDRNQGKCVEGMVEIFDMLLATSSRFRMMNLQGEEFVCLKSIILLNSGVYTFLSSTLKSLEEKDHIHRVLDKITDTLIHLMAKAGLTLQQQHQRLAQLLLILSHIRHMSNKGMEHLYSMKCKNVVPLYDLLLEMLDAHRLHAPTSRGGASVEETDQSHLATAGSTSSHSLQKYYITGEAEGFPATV

T1 sequence (Q92731 whole entry): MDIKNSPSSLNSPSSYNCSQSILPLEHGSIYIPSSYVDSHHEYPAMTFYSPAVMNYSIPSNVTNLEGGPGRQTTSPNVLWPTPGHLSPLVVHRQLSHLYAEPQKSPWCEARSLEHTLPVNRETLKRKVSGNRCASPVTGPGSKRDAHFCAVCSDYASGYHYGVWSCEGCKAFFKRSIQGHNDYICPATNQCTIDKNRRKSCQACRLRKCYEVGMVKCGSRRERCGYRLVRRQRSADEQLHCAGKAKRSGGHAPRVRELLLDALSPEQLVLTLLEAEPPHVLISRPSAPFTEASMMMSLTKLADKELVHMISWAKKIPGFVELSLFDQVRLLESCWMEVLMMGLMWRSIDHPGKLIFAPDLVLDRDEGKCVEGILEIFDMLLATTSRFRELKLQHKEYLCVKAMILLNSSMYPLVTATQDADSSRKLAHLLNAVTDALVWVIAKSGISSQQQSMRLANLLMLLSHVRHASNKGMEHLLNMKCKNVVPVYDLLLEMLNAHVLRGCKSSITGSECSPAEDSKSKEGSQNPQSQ

IC50 (ERβ) [µM]	IC50 (ERα) [µM]	Compound
4.7	2.2	COc1ccc([C@@H](C)C(=O)c2ccc(O)cc2O)cc1 [angolensin, 1-(2,4-dihydroxyphenyl)-2-(4-methoxyphenyl)propan-1-one]
3.3	15.9	O=c1cc(-c2ccc(O)cc2)oc2cc(O[C@@H]3O[C@H](CO)[C@@H](O)[C@H](O)[C@H]3O)cc(O)c12 [cosmosiin, 5-hydroxy-2-(4-hydroxyphenyl)-7-[(2S,3R,4S,5S,6R)-3,4,5-trihydroxy-6-(hydroxymethyl)oxan-2-yl]oxychromen-4-one]
